According to PubChem BioAssay (NCI):
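Test compounds were applied to cells in 96-well plates for 48 hours at 5 doses. Definition used: TGI = concentration required for complete inhibition of growth.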

Experiments:
Assay in all cases: NCI tumour cell line growth inhibition, 48 h
A498 renal = test system: A498 renal
A549 NSCLC = test system: A549 NSCLC
ACHN renal = test system: ACHN renal
COLO 205 colon = test system: COLO 205 colon
DU-145 prostate = test system: DU-145 prostate
HS 578T breast = test system: HS 578T breast
HT29 colon = test system: HT29 colon
MDA-MB-231 breast = test system: MDA-MB-231 breast
MDA-MB-435 = test system: MDA-MB-435
NCI-H23 lung = test system: NCI-H23 lung
RPMI-8226 leukemia = test system: RPMI-8226 leukemia
SF-268 CNS = test system: SF-268 CNS
SF-295 CNS = test system: SF-295 CNS
SK-MEL-5 melanoma = test system: SK-MEL-5 melanoma
SW-620 colon = test system: SW-620 colon
U251 CNS = test system: U251 CNS
UACC-62 melanoma = test system: UACC-62 melanoma
MALME-3M melanoma = test system: MALME-3M melanoma
NCI-H226 lung = test system: NCI-H226 lung

Measured: TGI

c1cc(-c2cscc2-c2ccsc2)cs1
64.2 µM: HS 578T breast
not listed: MALME-3M melanoma | NCI-H226 lung
> 100 µM: all other assays above

COC(=O)c1ccc(CN2CCc3c([nH]c4ccccc34)C2CO)o1 (configuration not stated)
not listed: A498 renal | ACHN renal | HS 578T breast | U251 CNS | NCI-H226 lung
> 10 µM: all other assays above

COc1ccc(NC(=S)NN=C(C)c2cccc(C(C)=NNC(=S)Nc3ccc(OC)cc3)n2)cc1
not listed: MDA-MB-231 breast
> 100 µM: all other assays above

CN(NC(=O)c1ccco1)C1=NCCCCN1
not listed: A498 renal
> 100 µM: all other assays above

Oc1ccc(-c2cc(-c3c(O)cc(O)cc3O)on2)cc1
not listed: A498 renal | COLO 205 colon
> 100 µM: all other assays above

O=C(/C=C/c1ccc(OCCCCCCCCCCOc2ccc(/C=C/C(=O)c3ccc(Cl)cc3)cc2)cc1)c1ccc(Cl)cc1
not listed: DU-145 prostate | HS 578T breast | MDA-MB-231 breast | MDA-MB-435
> 100 µM: all other assays above

COc1ccc(C[C@@H]2CN(C(=O)c3ccccc3)[C@H](Cc3ccc(O)cc3)CN2C(=O)c2ccccc2)cc1Br
not listed: MDA-MB-231 breast | SK-MEL-5 melanoma | U251 CNS | UACC-62 melanoma
> 100 µM: all other assays above

CC(=O)N[C@@H](Cc1ccc(O)cn1)C(=O)NCc1cccc(F)c1
not listed: MDA-MB-231 breast
> 100 µM: all other assays above

COC(=O)Cc1c([C@@H]2Nc3ccccc3[C@H]2CC(=O)OC)[nH]c2ccccc12
34.3 µM: UACC-62 melanoma
84.8 µM: MDA-MB-435
34.8 µM: COLO 205 colon
88.9 µM: MDA-MB-231 breast
49.4 µM: RPMI-8226 leukemia
21 µM: SK-MEL-5 melanoma
not listed: MALME-3M melanoma
> 100 µM: all other assays above

CN1CC(c2ccccc2)=Cc2c1ccc(N)c2N=N
not listed: A498 renal | COLO 205 colon | DU-145 prostate
> 100 µM: all other assays above

Cc1c(C)c(C)c(-n2c(=O)n(C)c(=O)n2C(C)(C)C)c(C)c1C
not listed: HT29 colon | MALME-3M melanoma | NCI-H226 lung
> 100 µM: all other assays above

Cc1cc(Br)c(N2C3=C(CC4=C2CCCC4=O)C(=O)CCC3)c(Br)c1
not listed: COLO 205 colon | DU-145 prostate | MDA-MB-231 breast | MDA-MB-435 | SF-295 CNS | MALME-3M melanoma
> 100 µM: all other assays above

CCOC(=O)c1ccc(NC2Oc3cc4c(cc3C(c3cc(OC)c(OC)c(OC)c3)C2C)OCO4)cc1 (configuration not stated)
> 100 µM: A498 renal | DU-145 prostate | SW-620 colon
> 63.4 µM: ACHN renal
0.645 µM: COLO 205 colon
> 67.3 µM: NCI-H23 lung
2.9 µM: SF-295 CNS
64.5 µM: UACC-62 melanoma
> 42.5 µM: U251 CNS
1.49 µM: SK-MEL-5 melanoma
> 40.8 µM: SF-268 CNS
16 µM: NCI-H226 lung
> 73.2 µM: A549 NSCLC
4.92 µM: RPMI-8226 leukemia
2.24 µM: MDA-MB-231 breast
0.677 µM: MALME-3M melanoma
0.448 µM: MDA-MB-435
12.9 µM: HT29 colon

N#CI1OC(=O)c2ccccc21
not listed: HS 578T breast | MALME-3M melanoma
> 100 µM: all other assays above

CCOC(=O)c1nc2c3c(ncn2n1)Oc1c(c(-c2ccccc2)nn1-c1ccccc1)C3c1ccc(OC)c(OC)c1 (configuration not stated)
38 µM: HS 578T breast
71.1 µM: SF-268 CNS
not listed: A498 renal | NCI-H226 lung
> 100 µM: all other assays above

CCCCCCCCCCCCNC(=O)NCC(OCC)OCC
not listed: MALME-3M melanoma
> 10 µM: all other assays above

Cc1cc(-c2ccc(C(=O)C(Cl)(Cl)Cl)[nH]2)on1
54.3 µM: NCI-H23 lung
39.6 µM: DU-145 prostate
76.8 µM: HT29 colon
28.7 µM: U251 CNS
60.1 µM: MDA-MB-231 breast
62.9 µM: NCI-H226 lung
70.6 µM: MDA-MB-435
not listed: HS 578T breast
> 100 µM: all other assays above

O=C1Nc2ccccc2C(=O)OC(Cc2ccccc2)=Nc2ccccc21
not listed: A498 renal | HS 578T breast | MDA-MB-231 breast | MALME-3M melanoma
> 100 µM: all other assays above

CCCCOC1CC2(c3ccc(OC)cc3)C(=O)c3ccccc3N2O1 (configuration not stated)
65.7 µM: RPMI-8226 leukemia
58.3 µM: MALME-3M melanoma
88.4 µM: SK-MEL-5 melanoma
54.1 µM: COLO 205 colon
> 100 µM: A549 NSCLC | SF-268 CNS | SF-295 CNS | SW-620 colon
> 10 µM: A498 renal | ACHN renal | NCI-H226 lung | U251 CNS | UACC-62 melanoma

Nc1c(Br)cc(-c2cc(Br)c(N)c(Br)c2)cc1Br
not listed: A498 renal | U251 CNS
> 100 µM: all other assays above

CCOC(=O)C1NCCc2c1[nH]c1ccccc21 (configuration not stated)
not listed: A498 renal | ACHN renal | HS 578T breast | U251 CNS | NCI-H226 lung
> 10 µM: all other assays above

C1=C2SSC3=CC=C(SSc4ccc(s4)SSC4=CC=C(SSC(=C1)S2)S4)S3
not listed: HS 578T breast | UACC-62 melanoma
> 100 µM: all other assays above

COC(=O)C(=O)C(C(=O)C(=O)Nc1ccccc1C(=O)OC)c1nc2ccc(C(=O)c3ccccc3)cc2[nH]c1=O (configuration not stated)
not listed: COLO 205 colon | DU-145 prostate
> 100 µM: all other assays above

COc1ccc(-n2sc3ncc(-c4ccccc4)cc3c2=O)cc1
48.3 µM: ACHN renal
53.3 µM: NCI-H23 lung
66.8 µM: RPMI-8226 leukemia
not listed: HS 578T breast | HT29 colon | MDA-MB-231 breast | SF-268 CNS | MALME-3M melanoma
> 100 µM: all other assays above

COc1c(C2(c3ccc(F)cc3)SCCCS2)c(=O)c1=O
not listed: A498 renal
> 100 µM: all other assays above

CC1C(c2ccc(N(C)C)cc2)c2cc3c(cc2OC1N1CCCC1)OCO3 (configuration not stated)
97.5 µM: RPMI-8226 leukemia
60.4 µM: MDA-MB-435
> 81.9 µM: HT29 colon
72.3 µM: A498 renal
> 94.8 µM: SF-295 CNS
78 µM: HS 578T breast
not listed: MDA-MB-231 breast | NCI-H226 lung
> 100 µM: all other assays above

O=S(=O)(O)c1cc(Cl)c(O)c2ncc(Cl)cc12
not listed: HS 578T breast | SF-268 CNS | MALME-3M melanoma
> 100 µM: all other assays above

COc1ccc(-c2nc3ncccn3c2-c2ccc(S(C)=O)cc2)cc1 (configuration not stated)
53.8 µM: MDA-MB-435
not listed: A498 renal | MALME-3M melanoma | NCI-H226 lung
> 100 µM: all other assays above
